Assay results as given in the supplement of paper PMC10627819.

Experiments:
[1] = system: S. aureus Newman; experiment: Bliss interaction score (quartile over a dose matrix) (fitness difference); higher = more antagonism (negative = synergy)
Method in brief: (§1)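 Quartiles summarise the Bliss score over technical, biological and donor/recipient replicates, where the score is observed minus expected fitness under a product model. Expected fitness uses single-drug values inferred from combination data. Fitness is OD595 at entry into stationary phase over the plate's robust no-drug mean, capped at 1.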

[2] = system: B. subtilis 168; experiment: as above
Method in brief: as §1

[3] = system: S. aureus DSM 20231; experiment: as above
Method in brief: as §1

[4] = system: S. pneumoniae D39V; experiment: as above
Method in brief: as §1

[5] = system: S. aureus Newman; experiment: fitness (endpoint OD595 vs no drug) (fraction); higher = more growth
Method in brief: (§2)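 At 37 °C, bacteria in TSB, LB Lennox or CY were grown in 384-well plates from a starting OD595 of 0.01. OD595 was measured every 30 min for 14 h, with the first reading used as background. Fitness is the optical density at the switch to stationary phase as a fraction of the robust mean of no-drug control wells, capped at 1.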

[6] = system: S. pneumoniae D39V; experiment: as above
Method in brief: as §2

[7] = system: B. subtilis 168; experiment: as above
Method in brief: as §2
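Wherever Bliss interaction score (quartile over a dose matrix) is given: first quartile when negative (synergy) and third quartile when positive (antagonism).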

CC1=C(C(=O)O)N2C(=O)[C@@H](NC(=O)[C@H](N)c3ccccc3)[C@H]2SC1 [Cephalexin] + C/C(=C\C(=O)OCCCCCCCCC(=O)O)C[C@@H]1OC[C@H](C[C@@H]2O[C@H]2[C@@H](C)[C@H](C)O)[C@@H](O)[C@H]1O [Pseudomonic acid]
Details | Bliss interaction score
[1] | 0.0223
[2] | 0.0311
[3] | 0.0119
[4] | 0.154

fitness, one replicate
Details | first compound 0.125 µg/mL | first compound 0.25 µg/mL | first compound 0.5 µg/mL | first compound 1 µg/mL | first compound 2 µg/mL
[5], partner 0.0313 µg/mL | – | – | 0.0692 | 0.0733 | 0.0904
[5], partner 0.0625 µg/mL | – | – | 0.036 | 0.0347 | 0.0466
[5], partner 0.125 µg/mL | – | – | 0.0496 | 0.0429 | 0.049
[6], partner 0.03 µg/mL | 0.933 | 0.958 | ≥ 1 | – | –
[6], partner 0.06 µg/mL | 0.733 | 0.828 | 0.893 | – | –
[6], partner 0.12 µg/mL | 0.45 | 0.559 | 0.616 | – | –

fitness, [6]
Details | first compound 1 µg/mL | first compound 2 µg/mL | first compound 4 µg/mL
partner 0.03 µg/mL | 0.67 | – | 0.0998
partner 0.06 µg/mL | 0.6 | – | 0.123
partner 0.12 µg/mL | 0.38 | 0.215 | 0.122

CC[C@H]1OC(=O)[C@H](C)[C@@H](O[C@H]2C[C@@](C)(OC)[C@@H](O)[C@H](C)O2)[C@H](C)[C@@H](O[C@@H]2O[C@H](C)C[C@H](N(C)C)[C@H]2O)[C@](C)(O)C[C@@H](C)CN(C)[C@H](C)[C@@H](O)[C@]1(C)O [Azithromycin] + C/C(=C\C(=O)OCCCCCCCCC(=O)O)C[C@@H]1OC[C@H](C[C@@H]2O[C@H]2[C@@H](C)[C@H](C)O)[C@@H](O)[C@H]1O [Pseudomonic acid]
Details | Bliss interaction score
[1] | -0.0303
[2] | -0.0541
[3] | -0.0221
[4] | -0.0833

fitness, [5], one replicate
Details | first compound 0.125 µg/mL | first compound 0.25 µg/mL | first compound 0.5 µg/mL
partner 0.0313 µg/mL | 0.0547 | 0.0237 | 0
partner 0.0625 µg/mL | 0.0262 | 0.0139 | 0.0154
partner 0.125 µg/mL | 0.0288 | 0.0141 | 0.0119

CNC(C)C1CCC(N)C(OC2C(N)CC(N)C(OC3OCC(C)(O)C(NC)C3O)C2O)O1 (stereo unspecified) [Gentamicin] + Cn1nnc(-c2ccc(-c3ccc(N4C[C@H](CO)OC4=O)cc3F)cn2)n1 [Tedizolid]
main component drawn
Details | Bliss interaction score
[1] | 0.0667
[2] | 0.228
[3] | 0.0633
[4] | -0.112

fitness, main component drawn
Details | partner 0.03125 µg/mL | partner 0.0625 µg/mL | partner 0.125 µg/mL | partner 0.25 µg/mL | partner 0.5 µg/mL
[5], first compound 0.375 µg/mL | – | 0.965 | 0.862 | 0.176 | –
[5], first compound 0.5 µg/mL | – | 0.938 | 0.934 | 0.605 | –
[5], first compound 0.75 µg/mL | – | 0.969 | 0.771 | 0.131 | –
[5], first compound 1 µg/mL | – | 0.949 | 0.907 | – | –
[5], first compound 1.5 µg/mL | – | – | – | 0.15 | –
[5], first compound 2 µg/mL | – | 0.979 | 0.905 | 0.702 | –
[6], first compound 2 µg/mL | 0.933 | 0.964 | 0.687 | 0.259 | 0.104
[6], first compound 4 µg/mL | 0.942 | 0.964 | – | 0.211 | 0.105
[6], first compound 8 µg/mL | 0.933 | 0.954 | – | 0.242 | 0.0993

CC[C@H]1OC(=O)[C@H](C)[C@@H](O[C@H]2C[C@@](C)(OC)[C@@H](O)[C@H](C)O2)[C@H](C)[C@@H](O[C@@H]2O[C@H](C)C[C@H](N(C)C)[C@H]2O)[C@](C)(O)C[C@@H](C)CN(C)[C@H](C)[C@@H](O)[C@]1(C)O [Azithromycin] + CN(C)c1cc(NC(=O)CNC(C)(C)C)c(O)c2c1C[C@H]1C[C@H]3[C@H](N(C)C)C(O)=C(C(N)=O)C(=O)[C@@]3(O)C(O)=C1C2=O [Tigecycline]
Details | Bliss interaction score
[1] | -0.0615
[2] | 0.0692
[3] | -0.0977
[4] | -0.0801

fitness
Details | partner 0.039 µg/mL | partner 0.078 µg/mL | partner 0.156 µg/mL
[5], first compound 0.125 µg/mL | 0.892 | 0.908 | 0.855
[5], first compound 0.25 µg/mL | 0.88 | 0.868 | 0.912
[5], first compound 0.5 µg/mL | 0.641 | 0.666 | 0.622
[7], first compound 0.25 µg/mL | 0.979 | 0.873 | 0.887
[7], first compound 0.5 µg/mL | 0.886 | 0.811 | 0.839

fitness, [7], one replicate
Details | first compound 0.5 µg/mL | first compound 1 µg/mL | first compound 2 µg/mL
partner 0.125 µg/mL | 0.894 | 0.947 | 0.614
partner 0.25 µg/mL | 0.889 | 0.871 | 0.48
partner 0.5 µg/mL | 0.941 | 0.826 | 0.332

CC[C@H]1OC(=O)[C@H](C)[C@@H](O[C@H]2C[C@@](C)(OC)[C@@H](O)[C@H](C)O2)[C@H](C)[C@@H](O[C@@H]2O[C@H](C)C[C@H](N(C)C)[C@H]2O)[C@](C)(O)C[C@@H](C)CN(C)[C@H](C)[C@@H](O)[C@]1(C)O [Azithromycin] + CO/N=C(\C(=O)N[C@@H]1C(=O)N2C(C(=O)O)=C(COC(N)=O)CS[C@H]12)c1ccco1 [Cefuroxime]
Details | Bliss interaction score
[1] | 0.0821
[2] | 0.0595
[3] | -0.24
[4] | 0.0571

fitness, one replicate
Details | partner 0.04875 µg/mL | partner 0.0975 µg/mL | partner 0.195 µg/mL | partner 1.562 µg/mL | partner 3.125 µg/mL | partner 6.25 µg/mL
[5], first compound 0.125 µg/mL | 0.967 | 0.894 | 0.876 | – | – | –
[5], first compound 0.25 µg/mL | 0.897 | 0.878 | 0.802 | – | – | –
[5], first compound 0.5 µg/mL | 0.653 | 0.612 | 0.547 | – | – | –
[7], first compound 0.25 µg/mL | 0.867 | 0.81 | – | 0.293 | 0.262 | 0.222
[7], first compound 0.5 µg/mL | – | – | – | 0.242 | 0.146 | 0.0811
[7], first compound 1 µg/mL | – | – | – | 0.0319 | 0.0369 | 0.0154
[7], first compound 2 µg/mL | 0.0565 | 0.0607 | 0.0393 | – | – | –

fitness, [7]
Details | partner 0.04875 µg/mL | partner 0.0975 µg/mL | partner 0.195 µg/mL | partner 0.39 µg/mL | partner 0.78 µg/mL
first compound 0.25 µg/mL | – | – | 0.556 | 0.353 | 0.305
first compound 0.5 µg/mL | 0.708 | 0.609 | – | 0.35 | 0.312
first compound 1 µg/mL | 0.463 | 0.361 | 0.215 | 0.171 | 0.16

CC1=C(C(=O)O)N2C(=O)[C@@H](NC(=O)[C@H](N)c3ccccc3)[C@H]2SC1 [Cephalexin] + CN[C@H](CC(C)C)C(=O)N[C@H]1C(=O)N[C@@H](CC(N)=O)C(=O)N[C@H]2C(=O)N[C@H]3C(=O)N[C@H](C(=O)N[C@H](C(=O)O)c4cc(O)cc(O)c4-c4cc3ccc4O)[C@H](O)c3ccc(c(Cl)c3)Oc3cc2cc(c3O[C@@H]2O[C@H](CO)[C@@H](O)[C@H](O)[C@H]2O[C@H]2C[C@](C)(N)[C@H](O)[C@H](C)O2)Oc2ccc(cc2Cl)[C@H]1O [Vancomycin]
Details | Bliss interaction score
[1] | 0.0402
[2] | -0.0548
[3] | 0.0385
[4] | -0.207

fitness
Details | first compound 0.25 µg/mL | first compound 0.5 µg/mL | first compound 1 µg/mL | first compound 2 µg/mL | first compound 4 µg/mL
[5], partner 0.1875 µg/mL | ≥ 1 | 0.997 | ≥ 1 | – | –
[5], partner 0.375 µg/mL | 0.997 | ≥ 1 | ≥ 1 | – | –
[5], partner 0.75 µg/mL | ≥ 1 | ≥ 1 | ≥ 1 | – | –
[6], partner 0.03125 µg/mL | – | – | – | 0.0634 | 0.0468
[6], partner 0.0625 µg/mL | – | – | – | 0.0312 | 0.0227
[6], partner 0.125 µg/mL | – | – | 0.282 | 0.0467 | 0.0467

fitness, [6], one replicate
Details | first compound 0.125 µg/mL | first compound 0.25 µg/mL | first compound 0.5 µg/mL
partner 0.125 µg/mL | 0.824 | 0.936 | ≥ 1
partner 0.25 µg/mL | 0.165 | 0.383 | 0.428
partner 0.5 µg/mL | 0.0735 | 0.0702 | 0.105

CC[C@H]1OC(=O)[C@H](C)[C@@H](O[C@H]2C[C@@](C)(OC)[C@@H](O)[C@H](C)O2)[C@H](C)[C@@H](O[C@@H]2O[C@H](C)C[C@H](N(C)C)[C@H]2O)[C@](C)(O)C[C@@H](C)CN(C)[C@H](C)[C@@H](O)[C@]1(C)O [Azithromycin] + CC(C1CCC(C(O1)OC2C(CC(C(C2O)OC3C(C(C(CO3)(C)O)NC)O)N)N)N)NC [Gentamicin]
main component drawn
Details | Bliss interaction score
[1] | 0.118
[2] | 0.305
[3] | 0.106
[4] | -0.0659

fitness, one replicate, main component drawn
Details | partner 0.0625 µg/mL | partner 0.125 µg/mL | partner 0.25 µg/mL | partner 0.375 µg/mL | partner 0.75 µg/mL | partner 1.5 µg/mL
[5], first compound 0.125 µg/mL | – | – | – | 0.946 | 0.936 | 0.954
[5], first compound 0.25 µg/mL | – | – | – | ≥ 1 | 0.943 | 0.911
[5], first compound 0.5 µg/mL | – | – | – | 0.711 | 0.62 | 0.571
[7], first compound 2 µg/mL | 0.482 | 0.322 | 0.337 | – | – | –

fitness, main component drawn
Details | first compound 0.125 µg/mL | first compound 0.25 µg/mL | first compound 0.5 µg/mL
[5], partner 0.5 µg/mL | 0.879 | 0.851 | 0.742
[5], partner 1 µg/mL | 0.899 | 0.901 | 0.827
[5], partner 2 µg/mL | 0.942 | 0.958 | 0.79
[7], partner 0.0625 µg/mL | – | 0.847 | –

CC[C@H]1OC(=O)[C@H](C)[C@@H](O[C@H]2C[C@@](C)(OC)[C@@H](O)[C@H](C)O2)[C@H](C)[C@@H](O[C@@H]2O[C@H](C)C[C@H](N(C)C)[C@H]2O)[C@](C)(O)C[C@@H](C)CN(C)[C@H](C)[C@@H](O)[C@]1(C)O [Azithromycin] + CN[C@@H]1[C@H](O[C@H]2[C@H](O[C@H]3[C@H](O)[C@@H](O)[C@H](N=C(N)N)[C@@H](O)[C@@H]3N=C(N)N)O[C@@H](C)[C@]2(O)C=O)O[C@@H](CO)[C@H](O)[C@H]1O [Streptomycin]
Details | Bliss interaction score
[1] | 0.102
[2] | 0.206
[3] | 0.108
[4] | -0.0455

fitness
Details | first compound 0.125 µg/mL | first compound 0.25 µg/mL | first compound 0.5 µg/mL
[5], partner 1 µg/mL | 0.881 | 0.849 | –
[7], partner 2 µg/mL | – | 0.943 | 0.843
[7], partner 4 µg/mL | – | 0.807 | 0.739
